Experimental data as given in US20230101963A1, “TREATMENT OF MEDICAL INDICATION” (VALLAURIX TRADING SARL MC, priority 2020, published 2023).

Key:
[1] = in vivo
Description: For the purpose of the invention, the BBB permeability refers to the ability of a compound to cross the Blood-Brain-Barrier (BBB) that is intact, i.e. not leaking or otherwise compromised. Permeability can be determined based on presence of central effects (or side-effects). A compound with BBB permeability can show central effects or side-effects.
BBB permeable is the ability of a compound to pass the BBB that is intact and for instance not leaking or otherwise compromised. Permeability can be determined based on presence of central effects (or side-effects) after peripheral administration of the compound.

hMC2R = hMC2R (Homo sapiens, UniProt Q01718); assay: agonist activity on hMC2R; type: biochemical; details: versus selective agonist affinity for hMC1R and hMC4R
hMC2R, sequence (Q01718 whole entry): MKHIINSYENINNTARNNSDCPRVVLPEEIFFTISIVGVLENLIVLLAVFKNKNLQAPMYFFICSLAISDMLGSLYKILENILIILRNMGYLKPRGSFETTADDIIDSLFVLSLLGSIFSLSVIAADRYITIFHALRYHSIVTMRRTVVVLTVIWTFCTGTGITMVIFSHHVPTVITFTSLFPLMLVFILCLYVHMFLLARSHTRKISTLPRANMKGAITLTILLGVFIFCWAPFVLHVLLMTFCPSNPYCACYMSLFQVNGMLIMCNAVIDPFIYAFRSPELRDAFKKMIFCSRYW
hMC2R, sequence (Q8TCY5 whole entry partner): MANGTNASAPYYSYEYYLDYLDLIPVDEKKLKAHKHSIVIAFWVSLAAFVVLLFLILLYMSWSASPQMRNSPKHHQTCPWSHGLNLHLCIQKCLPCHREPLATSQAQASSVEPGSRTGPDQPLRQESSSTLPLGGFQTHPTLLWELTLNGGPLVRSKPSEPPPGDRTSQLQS

## CCCC[C@H](NC(C)=O)C(=O)N[C@H]1CC(=O)NCCCC[C@@H](C(=O)O)NC(=O)[C@H](Cc2c[nH]c3ccccc23)NC(=O)[C@H](CCCN=C(N)N)NC(=O)[C@@H](Cc2ccccc2)NC(=O)[C@H](Cc2cnc[nH]2)NC1=O [bremelanotide, Ac-Nle-cyclo-(Asp-His-D-Phe-Arg-Trp-Lys-OH)]
[1]
  central activity in human, indicating passage of the human blood-brain-barrier: show central activity in human
hMC2R
  activity on hMC2R: none
